# Source: PubChem BioAssay (NCI)
#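 Compound exposure: 48 hours, 5 concentrations, 96-well plates. TGI marks complete inhibition of growth.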
# Experiments:
# Test in all cases: growth of human tumour cells (NCI), 48 h
# MOLT-4 leukemia = system: MOLT-4 leukemia
# SF-539 CNS = system: SF-539 CNS
# MDA-MB-435 = system: MDA-MB-435
# NCI-H23 lung = system: NCI-H23 lung
# NCI-H522 lung = system: NCI-H522 lung
# HT29 colon = system: HT29 colon
# BT-549 breast = system: BT-549 breast
# U251 CNS = system: U251 CNS
# HCT-116 colon = system: HCT-116 colon
# KM12 colon = system: KM12 colon
# A549 NSCLC = system: A549 NSCLC
# HOP-62 NSCLC = system: HOP-62 NSCLC
# SW-620 colon = system: SW-620 colon
# EKVX NSCLC = system: EKVX NSCLC
# A498 renal = system: A498 renal
# ACHN renal = system: ACHN renal
# MALME-3M melanoma = system: MALME-3M melanoma
# NCI-H226 lung = system: NCI-H226 lung
# SK-MEL-5 melanoma = system: SK-MEL-5 melanoma
# UACC-62 melanoma = system: UACC-62 melanoma
# SK-MEL-2 melanoma = system: SK-MEL-2 melanoma
# SF-268 CNS = system: SF-268 CNS
# CCRF-CEM leukemia = system: CCRF-CEM leukemia
# UACC-257 melanoma = system: UACC-257 melanoma
# OVCAR-4 ovarian = system: OVCAR-4 ovarian
# 786-0 renal = system: 786-0 renal
# IGROV1 ovarian = system: IGROV1 ovarian
# SR leukemia = system: SR leukemia
# RXF 393 renal = system: RXF 393 renal
# HL-60(TB) leukemia = system: HL-60(TB) leukemia
# SK-MEL-28 melanoma = system: SK-MEL-28 melanoma
# LOX IMVI melanoma = system: LOX IMVI melanoma
# T-47D breast = system: T-47D breast
# M14 melanoma = system: M14 melanoma
# K-562 leukemia = system: K-562 leukemia
# HS 578T breast = system: HS 578T breast
# SK-OV-3 ovarian = system: SK-OV-3 ovarian
# DU-145 prostate = system: DU-145 prostate
# OVCAR-5 ovarian = system: OVCAR-5 ovarian
# MDA-N = system: MDA-N
# CAKI-1 renal = system: CAKI-1 renal
# SNB-19 CNS = system: SNB-19 CNS
# MDA-MB-231 breast = system: MDA-MB-231 breast
# NCI/ADR-RES ovarian = system: NCI/ADR-RES ovarian
# UO-31 renal = system: UO-31 renal
# TK-10 renal = system: TK-10 renal
# HOP-92 NSCLC = system: HOP-92 NSCLC
# COLO 205 colon = system: COLO 205 colon
# SN12C renal = system: SN12C renal
# SF-295 CNS = system: SF-295 CNS
# MCF7 breast = system: MCF7 breast
# HCT-15 colon = system: HCT-15 colon
# PC-3 prostate = system: PC-3 prostate
# OVCAR-3 ovarian = system: OVCAR-3 ovarian
# NCI-H460 lung = system: NCI-H460 lung
# SNB-75 CNS = system: SNB-75 CNS
# OVCAR-8 ovarian = system: OVCAR-8 ovarian
# RPMI-8226 leukemia = system: RPMI-8226 leukemia
smiles,measurement,setting,value
COC(=O)C1=C(O)C(C(=O)OC)[C@@]2(O)[C@@H](C(=O)OC)C(c3ccc(OC(=O)/C(=C/c4ccc(Cl)cc4)c4ccc(Cl)cc4)cc3)C[C@@H]1[C@@H]2C(=O)OC (stereo not given in full),TGI,MOLT-4 leukemia,> 100 µM
same,TGI,SF-539 CNS,24.6 µM
same,TGI,MDA-MB-435,> 100 µM
same,TGI,NCI-H23 lung,> 100 µM
same,TGI,NCI-H522 lung,> 100 µM
same,TGI,HT29 colon,> 100 µM
same,TGI,BT-549 breast,> 100 µM
same,TGI,U251 CNS,> 100 µM
same,TGI,HCT-116 colon,> 100 µM
same,TGI,KM12 colon,> 100 µM
same,TGI,A549 NSCLC,> 100 µM
same,TGI,HOP-62 NSCLC,> 100 µM
same,TGI,SW-620 colon,> 100 µM
same,TGI,EKVX NSCLC,> 100 µM
same,TGI,A498 renal,> 100 µM
same,TGI,ACHN renal,> 100 µM
same,TGI,MALME-3M melanoma,> 100 µM
same,TGI,NCI-H226 lung,63.9 µM
same,TGI,SK-MEL-5 melanoma,> 100 µM
same,TGI,UACC-62 melanoma,24 µM
same,TGI,SK-MEL-2 melanoma,38.2 µM
same,TGI,SF-268 CNS,> 100 µM
same,TGI,CCRF-CEM leukemia,> 100 µM
same,TGI,UACC-257 melanoma,> 100 µM
same,TGI,OVCAR-4 ovarian,> 100 µM
same,TGI,786-0 renal,> 100 µM
same,TGI,IGROV1 ovarian,> 100 µM
same,TGI,SR leukemia,> 100 µM
same,TGI,RXF 393 renal,> 100 µM
same,TGI,HL-60(TB) leukemia,> 100 µM
same,TGI,SK-MEL-28 melanoma,> 100 µM
same,TGI,LOX IMVI melanoma,38.1 µM
same,TGI,T-47D breast,> 100 µM
same,TGI,M14 melanoma,41.8 µM
same,TGI,K-562 leukemia,> 100 µM
same,TGI,HS 578T breast,> 100 µM
same,TGI,SK-OV-3 ovarian,> 100 µM
same,TGI,DU-145 prostate,> 100 µM
same,TGI,OVCAR-5 ovarian,> 100 µM
same,TGI,MDA-N,51.9 µM
same,TGI,CAKI-1 renal,85.9 µM
same,TGI,SNB-19 CNS,> 100 µM
same,TGI,MDA-MB-231 breast,82.8 µM
same,TGI,NCI/ADR-RES ovarian,> 100 µM
same,TGI,UO-31 renal,34.1 µM
same,TGI,TK-10 renal,73.7 µM
same,TGI,HOP-92 NSCLC,> 100 µM
same,TGI,COLO 205 colon,92.6 µM
same,TGI,SN12C renal,> 100 µM
same,TGI,SF-295 CNS,> 100 µM
same,TGI,MCF7 breast,> 100 µM
same,TGI,HCT-15 colon,> 100 µM
same,TGI,PC-3 prostate,> 100 µM
same,TGI,OVCAR-3 ovarian,> 100 µM
same,TGI,NCI-H460 lung,> 100 µM
same,TGI,SNB-75 CNS,> 100 µM
same,TGI,OVCAR-8 ovarian,> 100 µM
O=[N+]([O-])c1cccc([N+](=O)[O-])c1S(=O)(=O)c1ccccc1,TGI,SF-539 CNS,30.2 µM
same,TGI,MDA-MB-435,14.6 µM
same,TGI,NCI-H23 lung,50.7 µM
same,TGI,HT29 colon,36.2 µM
same,TGI,BT-549 breast,13.6 µM
same,TGI,U251 CNS,23 µM
same,TGI,HCT-116 colon,4.04 µM
same,TGI,KM12 colon,32 µM
same,TGI,A549 NSCLC,41.8 µM
same,TGI,HOP-62 NSCLC,35.1 µM
same,TGI,SW-620 colon,5.9 µM
same,TGI,EKVX NSCLC,42.8 µM
same,TGI,A498 renal,36.1 µM
same,TGI,ACHN renal,3.92 µM
same,TGI,MALME-3M melanoma,6.19 µM
same,TGI,NCI-H226 lung,36.8 µM
same,TGI,SK-MEL-5 melanoma,28.3 µM
same,TGI,SF-268 CNS,29 µM
same,TGI,UACC-257 melanoma,28.8 µM
same,TGI,786-0 renal,5.21 µM
same,TGI,IGROV1 ovarian,4.2 µM
same,TGI,HL-60(TB) leukemia,7.48 µM
same,TGI,SK-MEL-28 melanoma,15.2 µM
same,TGI,LOX IMVI melanoma,3.7 µM
same,TGI,T-47D breast,4.8 µM
same,TGI,M14 melanoma,6.59 µM
same,TGI,HS 578T breast,43.9 µM
same,TGI,SK-OV-3 ovarian,31.2 µM
same,TGI,DU-145 prostate,20 µM
same,TGI,OVCAR-5 ovarian,9.18 µM
same,TGI,MDA-N,19.8 µM
same,TGI,CAKI-1 renal,3.76 µM
same,TGI,SNB-19 CNS,35.3 µM
same,TGI,MDA-MB-231 breast,37.3 µM
same,TGI,NCI/ADR-RES ovarian,31.4 µM
same,TGI,UO-31 renal,3.5 µM
same,TGI,TK-10 renal,30.2 µM
same,TGI,HOP-92 NSCLC,7.18 µM
same,TGI,COLO 205 colon,19.4 µM
same,TGI,RPMI-8226 leukemia,3.68 µM
same,TGI,SN12C renal,12.3 µM
same,TGI,SF-295 CNS,31.8 µM
same,TGI,MCF7 breast,43.1 µM
same,TGI,HCT-15 colon,4.1 µM
same,TGI,PC-3 prostate,32.3 µM
same,TGI,OVCAR-3 ovarian,5.5 µM
same,TGI,NCI-H460 lung,46.7 µM
same,TGI,OVCAR-8 ovarian,6.21 µM
